Laboratory results as given in US20060235063A1, “Method of protecting a soybean plant with flutriafol” (priority 2005, published 2006).

Tests used:
soybean = assay: Example 2: field trial, count of emerged seedlings (crop safety); details: in vivo
Source text: (§1) Seed was drilled at 60 kg per hectare in four replicates per treatment. Each replicate consisted of a 6 m row of 100 seeds. With the seed treatments, fertilizer was first applied up to 2 cm below seed depth and then the rows opened to a depth of 3 cm, the seeds sown and the rows closed with soil. In each treatment there were five rows of 6 m length with 45 cm between rows. With the in-furrow treatments, the row was opened using a hoe, and then the appropriate weight amount of Impact 1.5 GR was applied in the row followed directly afterwards with seed placed over the granules. Soil was then placed over the seed to close the row.
(§2) Twenty two days after planting, the number of plants emerged was evaluated by counting the emerged seedlings in each of the central three rows of each plot. Disease assessment was done 61 days after emergence by selecting 20 leaves per plot from the whole plant at random, and estimating the percentage rust coverage (% disease severity).

Asian Rust in Soy Beans = assay: Example 3: greenhouse experiment, flutriafol seed or soil dressing, plants inoculated with rust spores at third trifoliate; format: in vivo, Phakopsora pachyrhizi; set-up: average recorded incidence of disease on the third trifoliate: unit not given here
Protocol: (§3) Soya seed was treated with a range of flutriafol rates, as presented in Table 3 below (right-hand side). Additionally, flutriafol was applied directly to the soil, at the rates described below (left-hand side). Three replicates where made per treatment. At the third trifoliate stage, seedlings where inoculated with rust spores on the ad- and ab-axial surfaces of the third trifoliate.
(§4) Following treatments and inoculations, the inoculated plants where transferred to a climate chamber, watered as necessary and evaluated for the incidence of Asian Rust. The average of the recorded incidence of disease on the third trifoliate is presented below.

soybean rust = assay: Example 2: field trial at Formoso do Araguaia, Brazil, percentage rust coverage on leaves; format: in vivo
Source text: A trial in Brazil at Formoso do Araguaia examined the rust control from nine rates of flutriafol applied as a 1.5% granule in a rate range of 4 to 40 kg formulated product per hectare (60 to 600 g flutriafol active ingredient per hectare), three rates of Vincit 2.5% powder seed dressing at […] formulated product per 100 kg seed (2.25 to 3.75 g flutriafol active ingredient per 100 kg seed) and four rates of Vincit 5% SC suspension concentrate seed dressing at 50 to 150 g formulation per 100 kg seed (1.5 to 4.5 g flutriafol active ingredient per 100 kg seed).
These treatments were compared with an untreated and a commercial standard treatment of Derosal Plus, which is a mixture of carbendazim plus thiram in a suspension concentrate formulation applied to seed at a rate of 200 ml formulation per 100 kg seed (30 g thiram plus 70 g carbendazim) per 100 kg seed. Both the untreated sample and the Derosal Plus treatment are provided below as comparative data.
as §1, §2

[1] = test system: Asian Rust (Phakopsora pachyrhizi) in Soy Beans; assay: Example 1: climate chamber test, flutriafol seed or soil dressing, plants inoculated with rust spores at third trifoliate; format: in vivo
Protocol: as §3, with “Soy bean” for “Soya”, “1” for “3”, “were done” for “where made”
as §4, with “were” for “where”, “disease (%)” for “disease”, “below. An untreated control is also provided as comparative data.” for “below.”

For `OC(Cn1cncn1)(c1ccc(F)cc1)c1ccccc1F` (racemic) [flutriafol, (RS)-2,4′-difluoro-α-(1H-1,2,4-triazol-1-ylmethyl)benzhydryl alcohol], the “effect on plant numbers (in words)” value (soybean) was “unaffected”, the “phytotoxicity (in words)” value (soybean) was “phytotoxic” and the “disease control (in words)” value (Asian Rust in Soy Beans; in-furrow treatments using 30 grams flutriafol per hectare or more) was “Complete disease control”. For the same molecule, the “disease control (in words)” value (Asian Rust in Soy Beans; in-furrow treatments using just 3 grams flutriafol per hectare) was “Significant improvements in disease control”, the “average recorded incidence of disease on the third trifoliate” value (Asian Rust in Soy Beans; seed treatment 3 ppm, 21DPI) was 31 and the “average recorded incidence of disease on the third trifoliate” value (Asian Rust in Soy Beans; seed treatment 10 ppm, 21DPI) was 35. The “average recorded incidence of disease on the third trifoliate” value (Asian Rust in Soy Beans; seed treatment 30 ppm, 21DPI) was 40, the “average recorded incidence of disease on the third trifoliate” value (Asian Rust in Soy Beans; seed treatment 100 ppm, 21DPI) was 0 and the “average recorded incidence of disease on the third trifoliate” value (Asian Rust in Soy Beans; seed treatment 300 ppm, 21DPI) was 0. For the same molecule, the “average recorded incidence of disease on the third trifoliate” value (Asian Rust in Soy Beans; seed treatment 1000 ppm, 21DPI) was 0, the “disease control (in words)” value (Asian Rust in Soy Beans; seed treatments using 100 ppm flutriafol or more) was “Complete disease control” and the “average recorded incidence of disease on the third trifoliate” value (Asian Rust in Soy Beans; soil treatment 3 g ai/Ha, 28DPI) was 18. For the same molecule, the “average recorded incidence of disease on the third trifoliate” value (Asian Rust in Soy Beans; soil treatment 10 g ai/Ha, 28DPI) was 16, the “average recorded incidence of disease on the third trifoliate” value (Asian Rust in Soy Beans; soil treatment 30 g ai/Ha, 28DPI) was 0 and the “average recorded incidence of disease on the third trifoliate” value (Asian Rust in Soy Beans; soil treatment 100 g ai/Ha, 28DPI) was 0. The “average recorded incidence of disease on the third trifoliate” value (Asian Rust in Soy Beans; soil treatment 300 g ai/Ha, 28DPI) was 0, the “average recorded incidence of disease on the third trifoliate” value (Asian Rust in Soy Beans; soil treatment 1000 g ai/Ha, 28DPI) was 0 and the “rust control (in words)” value (soybean rust; all flutriafol seed treatment rates) was “reduction in rust”. For the same molecule, the “rust control (in words)” value (soybean rust; in-furrow, lowest rate of 60 g flutriafol/hectare, 61 days after plant emergence) was “controlled the rust”, the “rust control (in words)” value (soybean rust; in-furrow, rates above 150 g flutriafol/hectare, 61 days after emergence) was “complete control” and the “disease control (in words)” value ([1]; in-furrow treatments using 30 grams or more flutriafol per hectare) was “Significant improvements”. For the same molecule, the “average recorded incidence of disease (%) on the third trifoliate” value ([1]; seed treatment 3 ppm) was 47%, the “average recorded incidence of disease (%) on the third trifoliate” value ([1]; seed treatment 10 ppm) was 28% and the “average recorded incidence of disease (%) on the third trifoliate” value ([1]; seed treatment 30 ppm) was 8%. For the same molecule, the “average recorded incidence of disease (%) on the third trifoliate” value ([1]; seed treatment 100 ppm) was 1%, the “average recorded incidence of disease (%) on the third trifoliate” value ([1]; seed treatment 300 ppm) was 0% and the “average recorded incidence of disease (%) on the third trifoliate” value ([1]; seed treatment 1000 ppm) was 0%. The “disease control (in words)” value ([1]; seed treatments using 10 ppm flutriafol or more) was “Significant improvements”, the “average recorded incidence of disease (%) on the third trifoliate” value ([1]; soil application 3 g ai/Ha) was 73% and the “average recorded incidence of disease (%) on the third trifoliate” value ([1]; soil application 10 g ai/Ha) was 63%. The “average recorded incidence of disease (%) on the third trifoliate” value ([1]; soil application 30 g ai/Ha) was 53%, the “average recorded incidence of disease (%) on the third trifoliate” value ([1]; soil application 100 g ai/Ha) was 12% and the “average recorded incidence of disease (%) on the third trifoliate” value ([1]; soil application 300 g ai/Ha) was 2%. For the same molecule, the “average recorded incidence of disease (%) on the third trifoliate” value ([1]; soil application 1000 g ai/Ha) was 1%.
